Results from PMC7088078 (Journal of Inorganic and Organometallic Polymers and …, 2008).
Where a name gives a salt, the structure may show the parent alone.

Columns and labels:
L929 [1] = experiment: Cytotoxicity assay; assay type: cell-based, mouse; conditions: trypan blue dye exclusion after 7 days, ± one SD
143 [2] = experiment: Cytotoxicity assay; assay type: cell-based, human; conditions: trypan blue dye exclusion after 7 days, ± one SD
Vero [3] = experiment: Cytotoxicity assay; assay type: cell-based, African green monkey; conditions: trypan blue dye exclusion after 7 days, ± one SD
BS-C-1 [4] = experiment: Cytotoxicity assay; assay type: cell-based, African green monkey; conditions: trypan blue dye exclusion after 7 days, ± one SD
Reovirus ST3 = experiment: Plaque reduction assay; assay type: cell-based, reovirus serotype 3 (ST3) strain Dearing; conditions: Reovirus ST3 in L929 cells, ± one SD
Vaccinia WR = assay type: cell-based, Vaccinia virus, strain WR
HSV-1 [5] = experiment: Plaque reduction assay; assay type: cell-based, Herpes simplex virus 1, strain GHSV-UL46; conditions: HSV-1 in Vero cells; ± one SD
VZV = assay type: cell-based, Varicella Zoster virus, strain Ellen; conditions: VZV in BS-C-1 cells; ± one SD
L929 [6] = experiment: Chemotherapeutic activity; conditions: after 7 days, ± one SD
143 [7] = experiment: Chemotherapeutic activity; conditions: after 7 days, ± one SD
Vero [8] = experiment: Chemotherapeutic activity; conditions: after 7 days, ± one SD
BS-C-1 [9] = experiment: Chemotherapeutic activity; conditions: after 7 days, ± one SD
[10] = tested on: L929, 143, Vero, BS-C-1 cell lines; experiment: Cell inhibition as a function of drug concentration; conditions: Fig. 1; cell line not specified
[11] = tested on: reovirus, vaccinia, HSV-1, VZV; assay type: cell-based
HSV-1 [12] = conditions: cited from earlier work
vaccinia = conditions: cited from earlier work
ssRNA viruses = conditions: in words; cited from earlier work

Nc1nc2c(ncn2COCCO)c(=O)[nH]1 [Acyclovir]
MCC, minimum cytotoxicity concentration that causes a reduction in cell viability >10% (L929 [1]): 500 ± 42.0 µg/mL
MCC, minimum cytotoxicity concentration that causes a reduction in cell viability >10% 143 [2]: 425 ± 32.0 µg/mL
MCC, minimum cytotoxicity concentration that causes a reduction in cell viability >10% (Vero [3]): 400 ± 42.0 µg/mL
MCC, minimum cytotoxicity concentration that causes a reduction in cell viability >10% (BS-C-1 [4]): 440 ± 39.0 µg/mL
MIC, minimum inhibitory concentration required to reduce virus plaque number by 50% (Reovirus ST3): >250 µg/mL
MIC, minimum inhibitory concentration required to reduce virus plaque number by 50% (Reovirus ST3; listed as acyclovir): > 250 µg/mL
MIC, minimum inhibitory concentration required to reduce virus plaque number by 50% (Vaccinia WR): >200 µg/mL
MIC, minimum inhibitory concentration required to reduce virus plaque number by 50% (HSV-1 [5]): about 0.08 μg/mL

N.N.[Cl][Pt][Cl] [Cisplatin]
MIC, minimum inhibitory concentration required to reduce virus plaque number by 50% (Reovirus ST3): >25 µg/mL
MIC, minimum inhibitory concentration required to reduce virus plaque number by 50% (Vaccinia WR): >25 µg/mL
MIC, minimum inhibitory concentration required to reduce virus plaque number by 50% (HSV-1 [5]): >25 µg/mL
MIC, minimum inhibitory concentration required to reduce virus plaque number by 50% (VZV): >25 µg/mL
GI50 (50% reduction in cell growth) (L929 [6]): 75 ± 6.0 µg/mL
GI50 (50% reduction in cell growth) 143 [7]: 50 ± 4.0 µg/mL
GI50 (50% reduction in cell growth) (Vero [8]): 50 ± 4.0 µg/mL
GI50 (50% reduction in cell growth) (BS-C-1 [9]): 50 ± 3.0 µg/mL
GI50 [10]: about 50 μg/mL

[Cl][Pt-2]([Cl])([Cl])[Cl].[K+].[K+] [Compound K2PtCl4, potassium tetrachloroplatinate(II)]
MCC, minimum cytotoxicity concentration that causes a reduction in cell viability >10% (L929 [1]): 100 ± 9.0 µg/mL
MCC, minimum cytotoxicity concentration that causes a reduction in cell viability >10% 143 [2]: 75 ± 6.0 µg/mL
MCC, minimum cytotoxicity concentration that causes a reduction in cell viability >10% (Vero [3]): 100 ± 9.0 µg/mL
MCC, minimum cytotoxicity concentration that causes a reduction in cell viability >10% (BS-C-1 [4]): 75 ± 6.0 µg/mL
MIC, minimum inhibitory concentration required to reduce virus plaque number by 50% (Reovirus ST3): >100 µg/mL
MIC, minimum inhibitory concentration required to reduce virus plaque number by 50% (Vaccinia WR): >75 µg/mL
MIC, minimum inhibitory concentration required to reduce virus plaque number by 50% (HSV-1 [5]): >100 µg/mL
MIC, minimum inhibitory concentration required to reduce virus plaque number by 50% (VZV): >75 µg/mL
inhibition of the tested viruses [11]: little inhibition
GI50 (50% reduction in cell growth) (L929 [6]): 200 ± 20.0 µg/mL
GI50 (50% reduction in cell growth) 143 [7]: 175 ± 12.0 µg/mL
GI50 (50% reduction in cell growth) (Vero [8]): 200 ± 16.0 µg/mL
GI50 (50% reduction in cell growth) (BS-C-1 [9]): 175 ± 20.0 µg/mL

CCN(CC)CCOc1ccc2c(c1)C(=O)c1cc(OCCN(CC)CC)ccc1-2 [Tilorone hydrochloride, 2,7-bis[2-(9-diethylamino)ethoxy]-9H-fluorene-9-one]
concentration shown to inhibit HSV-1 (HSV-1 [12]): 10 µg/mL
concentration shown to inhibit vaccinia (vaccinia): 10 µg/mL
antiviral activity against ssRNA viruses (ssRNA viruses): no antiviral activity
